We go through 12 compounds from paper PMC6072100, “Exploring the links between peptoid antibacterial activity and toxicity” (MedChemComm, 2017).

Holding throughout (type): cell-based
For assay [1], the system named is Pseudomonas aeruginosa PA01 (ATCC 15692). The method, then: (§1) Escherichia coli K-12 wild-type strain (W3110/ATCC27325, F^–, λ^–, rpoS(Am), rph-1, Inv(rrnD-rrnE)), Pseudomonas aeruginosa PA01 (ATCC 15692) Staphylococcus aureus (3R7089 strain Oxford/ATCC9144) and Staphylococcus epidermidis (laboratory strain from clinical isolate) were selected for bacteriological studies as representative Gram-negative (E. coli and P. aeruginosa) and Gram-positive (S. aureus and S. epidermidis) species. Bacterial cultures were prepared by streaking bacterial strains onto LB agar plates with an inoculation loop and incubated overnight at 37 °C. A single colony was selected and placed in 5 mL of Iso-sensitest broth (Oxoid, ThermoScientific) and incubated with shaking for 16–18 h at 37 °C to provide liquid cultures for testing.
(§2) MIC values were obtained according to the protocol described by J. M. Andrews et al.[58] and were conducted in 96-well plates (Sarstedt). Bacteria were grown from overnight cultures in Iso-sensitest broth to an A650nm of 0.07 equivalent to a 0.5 MacFarland standard (240 μM BaCl2 in 0.18 M H2SO4). This culture was diluted ten-fold with Iso-sensitest broth before use. Peptoids were initially dissolved in DMSO (5 mM) and diluted further in Iso-sensitest broth to achieve a concentration range of 4–200 μM using 2-fold serial dilutions. 50 μl of inoculum and 50 μl of peptoid solution were added to each test well (final concentration range of 2–100 μM). Experiments were performed in triplicate. A positive control for bacterial growth contained only the inoculum and Iso-sensitest broth. Other controls contained the inoculum and serial dilutions of ampicillin (from 250 μg mL^–1 to 2 μg mL^–1), serial dilutions of DMSO and the inoculum to confirm no inhibitory effect on bacterial growth, and Iso-sensitest broth alone as a sterile control. […] Quantitative data was attained from absorbance values using a Biotek Synergy H4 plate reader.
(§3) Antibacterial MIC determination
(§4) Escherichia coli K-12 wild-type strain (W3110 / ATCC27325, F-, λ-, rpoS(Am), rph-1, Inv(rrnD-rrnE)), Pseudomonas aeruginosa PA01 (ATCC 15692) Staphylococcus aureus (3R7089 strain Oxford / ATCC9144) and Staphylococcus epidermidis (laboratory strain from clinical isolate) were selected for bacteriological studies as representative Gram-negative (E. coli and P. aeruginosa) and Gram-positive (S. aureus and S. epidermidis) species. Bacterial cultures were prepared by streaking bacterial strains onto LB agar plates with an inoculation loop and incubated overnight at 37 °C.
(§5) A single colony was selected and placed in 5 mL of Iso-sensitest broth (Oxoid, ThermoScientific) and incubated with shaking for 16-18 h at 37 °C to provide liquid […]
(§6) MIC values were obtained according to the protocol described by J. M. Andrews et al.1 and were conducted in 96-well plates (Sarstedt). Bacteria were grown from overnight cultures in Iso-sensitest broth to an A650nm of 0.07 equivalent to a 0.5 MacFarland standard (240 μM BaCl2 in 0.18 M H2SO4). This culture was diluted ten-fold with Iso-sensitest broth before use. Peptoids were initially dissolved in DMSO (5 mM) and diluted further in Iso-sensitest broth to achieve a concentration range of 4 – 200 µM using 2-fold serial dilutions. 50 μl of inoculum and 50 μl of peptoid solution were added to each test well (final concentration range of 2 – 100 µM). Experiments were performed in triplicate. A positive control for bacterial growth contained only the inoculum and Iso-sensitest broth. Other controls contained the inoculum and serial dilutions of ampicillin (from 250 µg/mL to 2 µg/mL), serial dilutions of DMSO and the inoculum to confirm no inhibitory effect on bacterial growth, and Iso-sensitest broth alone as a sterile control. […]
(§7) growth after incubation at 37 °C for 16 h with shaking. Quantitative data was attained from absorbance values using a Biotek Synergy H4 plate reader.

Assay [2] has as its system Escherichia coli K-12 wild-type strain (W3110/ATCC27325). The settings on record: lowest concentration completely inhibiting growth, 37 °C, 16 h; range 2–100 μM. The protocol:
as §1, §2, §3, §4, §5, §6, §7

Assay [3] relates to Staphylococcus aureus (3R7089 strain Oxford/ATCC9144). The protocol:
as §1, §2, §3, §4, §5, §6, §7

Assay [4] relates to Staphylococcus epidermidis (laboratory strain from clinical isolate). The settings on record: for MIC S. epidermidis: 16 h. The protocol: as §1, §2, §3, §4, §5, §6, §7
The mark [5] stands for this setting: lowest concentration completely inhibiting growth, 37 °C, 16 h, range 2–100 μM.
Where [6] appears, read: lowest concentration completely inhibiting growth, 37 °C, range 2–100 μM.
Setting [7] is: laboratory strain from clinical isolate.

Like-named read-outs stand apart in the source and are kept apart here. Square brackets hold non-standard residues; d marks the D form. Peptide text beside a SMILES is read from it. Gly(Nα-4-Cl-benzyl) = O=C(O)CNCc1ccc(Cl)cc1; N(4-F-Bzl)Gly = O=C(O)CNCc1ccc(F)cc1; Gly(N-(CH2)6NH2) = NCCCCCCNCC(=O)O; Gly(N-2-aminoethyl) = NCCNCC(=O)O; Nspe = C[C@H](NCC(=O)O)c1ccccc1; Nphe = O=C(O)CNCc1ccccc1; Nlys = NCCCCNCC(=O)O

For `NCCCCCCNCC(=O)N(CC(=O)N(CC(=O)N(CCCCCCN)CC(=O)N(CC(=O)N(CC(=O)N(CCCCCCN)CC(=O)N(CC(=O)N(CC(N)=O)Cc1ccccc1)Cc1ccccc1)Cc1ccccc1)Cc1ccccc1)Cc1ccccc1)Cc1ccccc1` [Peptoid 2, (NahNpheNphe)3] (H-[Gly(N-(CH2)6NH2)][Nphe][Nphe][Gly(N-(CH2)6NH2)][Nphe][Nphe][Gly(N-(CH2)6NH2)][Nphe][Nphe]-NH2), the “MIC P. aeruginosa” value in assay [1] (ATCC 15692, 16 h) was greater than 100 µM. For the same compound, the “MIC E. coli” value in assay [2] came to 50 µM.
Regarding `CCCCCNCC(=O)N(CC(=O)N(CC(=O)N(CCCCC)CC(=O)N(CC(=O)N(CC(=O)N(CCCCN)CC(=O)N(CC(=O)N(CC(=O)N(CCCCN)CC(=O)N(CC(=O)N(CC(N)=O)[C@@H](C)c1ccccc1)[C@@H](C)c1ccccc1)[C@@H](C)c1ccccc1)[C@@H](C)c1ccccc1)[C@@H](C)c1ccccc1)[C@@H](C)c1ccccc1)[C@@H](C)c1ccccc1)[C@@H](C)c1ccccc1` [Peptoid 31, (NamyNspeNspe)2(NLysNspeNspe)2], the “MIC P. aeruginosa” value was greater than 100 µM in assay [1] (ATCC 15692, 16 h) and 100 µM in assay [1] (setting [5]). For the same compound, in assay [3] (setting [5]), the “MIC S. aureus” value was 2 µM. Moreover, the “MIC E. coli” value in assay [2] is greater than 100 µM. Besides, in assay [4] (setting [6]), the “MIC S. epidermidis” value amounted to 1 µM.
For `C[C@@H](c1ccccc1)N(CC(N)=O)C(=O)CN(C(=O)CN(CCCCN)C(=O)CN(C(=O)CN(C(=O)CNCCCCN)[C@@H](C)c1ccccc1)[C@@H](C)c1ccccc1)[C@@H](C)c1ccccc1` [Peptoid 15, (NLysNspeNspe)2] (H-[Nlys][Nspe][Nspe][Nlys][Nspe][Nspe]-NH2), the “MIC P. aeruginosa” value is greater than 100 µM in assay [1] (ATCC 15692, 16 h) and 100 µM in assay [1] (setting [5]). The “MIC S. aureus” value is greater than 100 µM in assay [3] (ATCC9144, 16 h) and 100 µM in assay [3] (setting [5]). For the same compound, the “MIC E. coli” value in assay [2] was greater than 100 µM. Moreover, the “sensitivity of S. epidermidis (in words)” value in assay [4] (compared with the other bacteria tested) is reported as “some increased sensitivity”. Besides, the “MIC S. epidermidis” value in assay [4] (setting [6]) came to 25 µM.
As to `C[C@@H](c1ccccc1)N(CC(N)=O)C(=O)CN(C(=O)CN(CCCCN)C(=O)CN(Cc1ccc(F)cc1)C(=O)CN(Cc1ccc(F)cc1)C(=O)CN(CCCCN)C(=O)CN(C(=O)CN(C(=O)CNCCCCN)[C@@H](C)c1ccccc1)[C@@H](C)c1ccccc1)[C@@H](C)c1ccccc1` [Peptoid 29, (NLysNspeNspe)(NLysNpfbNpfb)(NLysNspeNspe)], the “MIC P. aeruginosa” value in assay [1] (setting [5]) is 25 µM. In addition, the “MIC S. aureus” value in assay [3] (setting [5]) is 3 µM. Moreover, the “MIC E. coli” value in assay [2] came to 13 µM. Further, the “MIC S. epidermidis” value in assay [4] (setting [6]) turned out to be 2 µM.
With `C[C@@H](c1ccccc1)N(CC(N)=O)C(=O)CN(C(=O)CN(CCN)C(=O)CN(C(=O)CN(C(=O)CNCCN)[C@@H](C)c1ccccc1)[C@@H](C)c1ccccc1)[C@@H](C)c1ccccc1` [Peptoid 18, (NaeNspeNspe)2], the “MIC P. aeruginosa” value in assay [1] (ATCC 15692, 16 h) is greater than 100 µM; in assay [1] (setting [5]), 100 µM. The “MIC S. aureus” value in assay [3] (ATCC9144, 16 h) is greater than 100 µM; in assay [3] (setting [5]) it was 100 µM. The “MIC E. coli” value in assay [2] was greater than 100 µM. For the same compound, the “MIC S. epidermidis” value in assay [4] (setting [7]) was greater than 100 µM; in assay [4] (setting [6]), 100 µM.
For the compound `C[C@@H](c1ccccc1)N(CC(N)=O)C(=O)CN(C(=O)CN(CCCCCCN)C(=O)CN(C(=O)CN(C(=O)CNCCCCCCN)[C@@H](C)c1ccccc1)[C@@H](C)c1ccccc1)[C@@H](C)c1ccccc1` [Peptoid 12, (NahNspeNspe)2], in assay [1] (ATCC 15692, 16 h), the “MIC P. aeruginosa” value was greater than 100 µM. In addition, the “MIC S. aureus” value in assay [3] (ATCC9144, 16 h) is greater than 100 µM. Moreover, in assay [2], the “MIC E. coli” value was greater than 100 µM.
Regarding `NCCCCNCC(=O)N(CC(=O)N(CC(=O)N(CCCCN)CC(=O)N(CC(=O)N(CC(=O)N(CCCCN)CC(=O)N(CC(=O)N(CC(N)=O)Cc1ccc(F)cc1)Cc1ccc(F)cc1)Cc1ccc(F)cc1)Cc1ccc(F)cc1)Cc1ccc(F)cc1)Cc1ccc(F)cc1` [Peptoid 23, (NLysNpfbNpfb)3] (H-[Nlys][N(4-F-Bzl)Gly][N(4-F-Bzl)Gly][Nlys][N(4-F-Bzl)Gly][N(4-F-Bzl)Gly][Nlys][N(4-F-Bzl)Gly][N(4-F-Bzl)Gly]-NH2), the “MIC P. aeruginosa” value in assay [1] (setting [5]) is 25 µM. In addition, the “MIC S. aureus” value in assay [3] (setting [5]) was 3 µM. Moreover, in assay [2], the “MIC E. coli” value stood at 13 µM. The “MIC S. epidermidis” value in assay [4] (setting [6]) came to 3 µM.
As to `NCCNCC(=O)N(CC(=O)N(CC(=O)N(CCN)CC(=O)N(CC(=O)N(CC(N)=O)Cc1ccccc1)Cc1ccccc1)Cc1ccccc1)Cc1ccccc1` [Peptoid 9, (NaeNpheNphe)2] (H-[Gly(N-2-aminoethyl)][Nphe][Nphe][Gly(N-2-aminoethyl)][Nphe][Nphe]-NH2), the “MIC P. aeruginosa” value in assay [1] (ATCC 15692, 16 h) was greater than 100 µM; in assay [1] (setting [5]), 100 µM. Besides, the “MIC S. aureus” value was greater than 100 µM in assay [3] (ATCC9144, 16 h) and 100 µM in assay [3] (setting [5]). Further, in assay [2], the “MIC E. coli” value was greater than 100 µM. For the same compound, the “MIC S. epidermidis” value in assay [4] (setting [7]) was greater than 100 µM; in assay [4] (setting [6]) it was 100 µM.
As for `NCCCCNCC(=O)N(CC(=O)N(CC(=O)N(CCCCN)CC(=O)N(CC(=O)N(CC(=O)N(CCCCN)CC(=O)N(CC(=O)N(CC(N)=O)Cc1ccc(Cl)cc1)Cc1ccc(Cl)cc1)Cc1ccc(Cl)cc1)Cc1ccc(Cl)cc1)Cc1ccc(Cl)cc1)Cc1ccc(Cl)cc1` [Peptoid 21, (NLysNpcbNpcb)3] (H-[Nlys][Gly(Nα-4-Cl-benzyl)][Gly(Nα-4-Cl-benzyl)][Nlys][Gly(Nα-4-Cl-benzyl)][Gly(Nα-4-Cl-benzyl)][Nlys][Gly(Nα-4-Cl-benzyl)][Gly(Nα-4-Cl-benzyl)]-NH2), the “MIC P. aeruginosa” value in assay [1] (setting [5]) was determined as 25 µM. In addition, the “MIC S. aureus” value in assay [3] (setting [5]) is 3 µM. Also, in assay [2], the “MIC E. coli” value came out at 50 µM. Further, the “MIC S. epidermidis” value in assay [4] (setting [6]) amounted to 2 µM.
Turning to `NCCCCNCC(=O)N(CC(=O)N(CC(=O)N(CCCCN)CC(=O)N(CC(=O)N(CC(=O)N(CCCCN)CC(=O)N(CC(=O)N(CC(N)=O)Cc1cccc(F)c1)Cc1cccc(F)c1)Cc1cccc(F)c1)Cc1cccc(F)c1)Cc1cccc(F)c1)Cc1cccc(F)c1` [Peptoid 25, (NLysNmfbNmfb)3], in assay [1] (setting [5]), the “MIC P. aeruginosa” value was 25 µM. For the same compound, the “MIC S. aureus” value in assay [3] (setting [5]) stood at 6 µM. Also, in assay [2], the “MIC E. coli” value is 13 µM. Besides, in assay [4] (setting [6]), the “MIC S. epidermidis” value was 2 µM.
Regarding `NCCCCCCNCC(=O)N(CC(=O)N(CC(=O)N(CCCCCCN)CC(=O)N(CC(=O)N(CC(=O)N(CCCCCCN)CC(=O)N(CC(=O)N(CC(=O)N(CCCCCCN)CC(=O)N(CC(=O)N(CC(N)=O)Cc1ccccc1)Cc1ccccc1)Cc1ccccc1)Cc1ccccc1)Cc1ccccc1)Cc1ccccc1)Cc1ccccc1)Cc1ccccc1` [Peptoid 1, (NahNpheNphe)4] (H-[Gly(N-(CH2)6NH2)][Nphe][Nphe][Gly(N-(CH2)6NH2)][Nphe][Nphe][Gly(N-(CH2)6NH2)][Nphe][Nphe][Gly(N-(CH2)6NH2)][Nphe][Nphe]-NH2), in assay [1] (ATCC 15692, 16 h), the “MIC P. aeruginosa” value is greater than 100 µM. Moreover, the “MIC E. coli” value in assay [2] came out at 13 µM.
As for `C[C@@H](c1ccccc1)N(CC(N)=O)C(=O)CN(C(=O)CN(CCCCCCN)C(=O)CN(C(=O)CN(C(=O)CN(CCCCCCN)C(=O)CN(C(=O)CN(C(=O)CNCCCCCCN)[C@@H](C)c1ccccc1)[C@@H](C)c1ccccc1)[C@@H](C)c1ccccc1)[C@@H](C)c1ccccc1)[C@@H](C)c1ccccc1` [Peptoid 11, (NahNspeNspe)3] (H-[Gly(N-(CH2)6NH2)][Nspe][Nspe][Gly(N-(CH2)6NH2)][Nspe][Nspe][Gly(N-(CH2)6NH2)][Nspe][Nspe]-NH2), the “MIC P. aeruginosa” value in assay [1] (ATCC 15692, 16 h) is greater than 100 µM. The “MIC E. coli” value in assay [2] was 25 µM.
